The record followed here is ChEMBL document CHEMBL1201862, “PubChem BioAssay data set” (2004).

The structures appear in SMILES notation.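 Cultured in 96-well plates, cells were exposed to test compound for 48 hours across five concentrations. GI50 = concentration required for 50% inhibition of growth.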 The source made the active and inactive calls. Cut-off read from the data, not from the text of the source: active = GI50 up to about 1.1 µM and inactive = higher. Some results are limits rather than exact numbers.

Common to all, as to assay: growth of human tumour cells (NCI), 48 h
Test [1] concerns UO-31.
The test system of test [2] is RXF 393.
Test [3] relates to PC-3.
Test [4] relates to HCT-116.
Test [5] relates to A498.
For test [6], the system named is HCT-15.
Test [7] deals with T47D.
Test [8] concerns HOP-92.
For test [9], the system named is HCC 2998.
Test [10] has as its system DU-145.
Test [11] has as its system CCRF-CEM.
Test [12] concerns ACHN.
The subject of test [13] is BT-549.
The test system of test [14] is NCI/ADR-RES.
For test [15], the system named is UACC-257.
Test [16] concerns MCF7.
The test system of test [17] is Hs-578T.
The test system of test [18] is CAKI-1.
The subject of test [19] is K562.
The test system of test [20] is SF-539.

Consider `CCCC(=O)OCC1(CO)C/C(=C/CC(C(C)C)C(C)C)C(=O)O1` (centres undefined), for which the GI50 in [1] was > 100 µM (inactive); in test [2], > 100 µM (inactive); in test [3] it was > 100 µM (inactive); in test [4], > 100 µM (inactive); in [5] it was > 100 µM (inactive); in [6] it was over 100 µM. Further, the GI50 was > 100 µM (inactive) in [7]; 97.7 µM (inactive) in [8]; > 100 µM (inactive) in test [9]; > 100 µM (inactive) in test [10]; > 100 µM (inactive) in [11]; > 100 µM (inactive) in test [12]. The GI50 in [13], in test [14], in [15], in test [16], in [17] and in test [18] was > 100 µM (inactive) in each case.
In the case of `CCOC(=O)c1c[nH]c(C(=O)C=[N+]=[N-])c1C1CCN(CC)C1=S` (centres undefined), the GI50 was > 100 µM (inactive) in [1]; > 100 µM (inactive) in test [2]; > 100 µM (inactive) in test [3]; > 100 µM (inactive) in test [4]; > 100 µM (inactive) in test [5]; over 100 µM in test [6]. Also, the GI50 in test [7], in test [8], in test [9], in [10], in [19] and in test [12] was > 100 µM (inactive) throughout. Moreover, the GI50 in test [13], in test [14], in test [15], in test [16], in test [17] and in [18] was > 100 µM (inactive) each time.
For the molecule `O=C(O)c1c(O)c2cc(Br)ccc2oc1=O`, the GI50 in test [2] is > 100 µM (inactive); in [20], > 100 µM (inactive); in test [3], > 100 µM (inactive); in test [4] it was > 100 µM (inactive); in [5], > 100 µM (inactive); in test [6], over 100 µM. The GI50 in test [7] was > 100 µM (inactive); in [8], 72.1 µM (inactive); in [9], > 100 µM (inactive); in [10], > 100 µM (inactive); in test [11] it was > 100 µM (inactive); in test [19] it was > 100 µM (inactive). Moreover, the GI50 in [12], in test [13], in [14], in test [15], in test [16] and in test [17] was > 100 µM (inactive) throughout. Moreover, the GI50 in [18] is > 100 µM (inactive).
With `CCC(CCCC[C@H]1CC[C@@H]2CC(=O)C[C@H]12)OC` (some centres undefined), the GI50 in [2] was > 100 µM (inactive); in test [20], > 100 µM (inactive); in [3], > 100 µM (inactive); in test [4] it was 76 µM (inactive); in test [5], > 100 µM (inactive); in test [6] it was over 100 µM. Also, the GI50 is > 100 µM (inactive) in [7]; > 100 µM (inactive) in test [8]; > 100 µM (inactive) in test [9]; > 100 µM (inactive) in test [10]; > 100 µM (inactive) in [11]; 25.6 µM (inactive) in test [19]. Moreover, the GI50 in test [12] was > 100 µM (inactive); in test [13], 50.7 µM (inactive); in [14], 66.5 µM (inactive); in test [15], 46.5 µM (inactive); in test [16], > 100 µM (inactive); in [17], > 100 µM (inactive). In test [18], the GI50 was > 100 µM (inactive).
